IC50 data for 47 molecules are collected here from patent US8299070B2, “Indole compounds and pharmaceutical use thereof” (Japan Tobacco Inc., priority 2009, dated 2012).

Structures are written as SMILES. Bounds are passed on as bounds.

The assay addresses T1, hITK enzyme (FLAG-tagged full-length hITK) (Homo sapiens, UniProt Q08881).
T1 construct: strongly expressing FLAG-tagged full-length hITK in Sf9 cells; FLAG; made in house; host or cells: Sf9 insect cells (ITK); Escherichia coli (GST-SLP76 substrate)
T1 sequence (Q08881 1-620): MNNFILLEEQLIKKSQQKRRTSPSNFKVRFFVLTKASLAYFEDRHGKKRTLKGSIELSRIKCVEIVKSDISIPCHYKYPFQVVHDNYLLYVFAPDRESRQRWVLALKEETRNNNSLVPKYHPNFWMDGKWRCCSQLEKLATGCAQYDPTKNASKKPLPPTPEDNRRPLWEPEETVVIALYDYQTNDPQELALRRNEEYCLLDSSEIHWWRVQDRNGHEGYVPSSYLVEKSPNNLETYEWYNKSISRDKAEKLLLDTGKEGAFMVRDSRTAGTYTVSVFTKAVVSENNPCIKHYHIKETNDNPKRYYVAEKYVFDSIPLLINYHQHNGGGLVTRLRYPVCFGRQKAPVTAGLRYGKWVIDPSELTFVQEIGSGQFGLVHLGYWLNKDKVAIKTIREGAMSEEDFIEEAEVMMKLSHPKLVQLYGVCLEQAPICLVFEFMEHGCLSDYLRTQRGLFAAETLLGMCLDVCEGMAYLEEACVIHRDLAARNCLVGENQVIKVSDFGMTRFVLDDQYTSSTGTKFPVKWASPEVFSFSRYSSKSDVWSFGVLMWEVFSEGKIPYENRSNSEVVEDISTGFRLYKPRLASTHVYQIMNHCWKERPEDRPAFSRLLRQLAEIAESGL
Description: ITK inhibitory activity (HTRF kinase assay, biotinylated GST-SLP76 substrate). The format is biochemical. To be noted: IC50 calculated from the 2 test compound concentrations sandwiching 50% ITK inhibitory rate. As to the method:
(1) Preparation of hITK Enzyme
hITK enzyme was prepared by strongly expressing FLAG-tagged full-length hITK in Sf9 cells, and purifying same by anti-FLAG antibody column.
(2) Preparation of biotinylated GST-SLP76
Biotinylated GST-SLP76 was prepared by strongly expressing GST-tagged SLP76 (aa95-175) in Escherichia coli, purifying same by glutathion sepharose column and biotinylating same.
(3) Preparation of Solution
(i) buffer for dilution: 20 mmol/L 3-(N-morpholino)propanesulfonic acid (pH 7.0) (DOJINDO LABORATORIES), 10 mmol/L magnesium chloride (Sigma-Aldrich Corporation), 1 mmol/L dithiothreitol (Nacalai Tesque, Inc.), 0.1% gelatin (Sigma-Aldrich Corporation)
(ii) substrate solution: 0.2 μg/mL biotinylated GST-SLP76, 100 μmol/L ATP (Sigma-Aldrich Corporation), prepared with buffer for dilution
(iii) test compound solution: test compound, 50% dimethyl sulfoxide (DMSO), prepared with buffer for dilution
(iv) enzyme solution: 50 ng/mL hITK enzyme, prepared with buffer for dilution
(v) control solution: solution after removal of test compound from the mixture of the above-mentioned (i), (ii) and (iii)
(vi) blank solution: solution after removal of ATP from the mixture of the above-mentioned (i), (ii) and (iii)
(vii) detection buffer: 0.1 μg/mL Anti-Phosphotyrosine (PT66)-Cryptate (Cisbio), 2.5 μg/mL streptavidin-binding XL665 (Cisbio), 50 mmol/L 4-(2-hydroxyethyl)-1-piperazineethanesulfonic acid (pH 7.4) (Nacalai Tesque, Inc.), 30 mmol/L EDTA (NipponGene), 0.1% TritonX (Sigma-Aldrich Corporation), 200 mmol/L potassium fluoride (Wako Pure Chemical Industries, Ltd.), 0.05% bovine serum albumin (Sigma-Aldrich Corporation) (4) Measurement of ITK Inhibitory Activity
A substrate solution (25 μL/well), a test compound solution (5 μL/well) and an enzyme solution (20 μL/well) were added into 96 well half-area white plate (plate, Corning Incorporated 3642) to start a kinase reaction. The plate was stood still at room temperature for 10 min. Then, a detection buffer (50 μL/well) was added to the plate. After 2 hr from the addition of the detection buffer, fluorescence intensity at 620 nm (excited at 337 nm), and fluorescence intensity at 665 nm ([…]) were measured by a fluorescence microplate reader.
The Ratio (fluorescence intensity at 665 nm/fluorescence intensity at 620 nm×10000) of each test compound was calculated from the measured fluorescence intensity. Simultaneously, the measurement was performed using a blank solution and a control solution, and % of control value of each test compound was calculated from the following formula. % of control=(Ratio of test compound−Ratio of blank)/(Ratio of control−Ratio of blank)×100 ITK inhibitory rate (%)=100−(% of control)
The IC50 value was calculated from the test compound concentrations at 2 points sandwiching 50% ITK inhibitory rate.
In the test for the compounds of Examples 380 and 381, the ATP concentration of the substrate solutions was 6 μmol/L.
The IC50 is the concentration that inhibits the measured activity by half. Consider `CN(C(=O)COc1cccnc1)c1ccc2cc(-c3n[nH]c4c3CCC(C)(C)C4)[nH]c2c1` [Example 86], for which the IC50 is less than 3 nM.
For `CCN(C(=O)CN(C)C(C)=O)c1ccc2cc(-c3n[nH]c4c3CCC(C)(C)C4)[nH]c2c1` [Example 291] the value was 1 nM; for `CN(C(=O)CC1CCC(=O)N1C)c1ccc2cc(-c3n[nH]c4c3CCC(C)(C)C4)[nH]c2c1` (centres unmarked) [Example 142], 5 nM; for `CO[C@H](C)C(=O)N(C)c1ccc2cc(-c3n[nH]c4c3CCC(C)(C)C4)[nH]c2c1` [Example 168], 3 nM.
With `COCC(C)C(=O)N(C)c1ccc2cc(-c3n[nH]c4c3CCC(C)(C)C4)[nH]c2c1` (centres unmarked) [Example 58], the IC50 is 6 nM.
Consider `COCCN(C(=O)CN1CCC(C)(C)C1=O)c1ccc2cc(-c3n[nH]c4c3CCC(C)(C)C4)[nH]c2c1` [Example 285], for which the IC50 was 2 nM.
Next, `CN(C)CCCN(C(=O)C1CCOCC1)c1ccc2cc(-c3n[nH]c4c3CCC(C)(C)C4)[nH]c2c1` [Example 223]: 5 nM; `CC(C(=O)N(C)c1ccc2cc(-c3n[nH]c4c3CCC(C)(C)C4)[nH]c2c1)N(C)C(=O)OC(C)(C)C` (centres unmarked) [Example 195]: 20 nM.
`CC(C)CC(=O)N(C)c1ccc2cc(-c3n[nH]c4c3CCCC4)[nH]c2c1` [Example 361]: the half-maximal inhibitory concentration (IC50) was 20 nM.
Consider `CN(C(=O)C(C)(C)CO)c1ccc2cc(-c3n[nH]c4c3CCC(C)(C)C4)[nH]c2c1` [Example 76], for which the IC50 was 4 nM.
With `CC1CC(=O)N(CC(=O)N(C)c2ccc3cc(-c4n[nH]c5c4CCC(C)(C)C5)[nH]c3c2)C1` (centres unmarked) [Example 188], the half-maximal inhibitory concentration (IC50) was 1 nM.
As to `CCC(=O)N(C)c1ccc2cc(-c3n[nH]c4c3CC(O)C(C)(C)C4)[nH]c2c1` (centres unmarked) [Example 373], the IC50 was 8 nM.
As for `CC(=O)N(C)[C@@H](C)C(=O)N(C)c1ccc2cc(-c3n[nH]c4c3CCC(C)(C)C4)[nH]c2c1` [Example 202], the IC50 is 14 nM.
For `COCCC(=O)N(C)c1ccc2cc(-c3n[nH]c4c3CCC(C)(C)C4)[nH]c2c1` [Example 62], the IC50 is 4 nM.
Take `CN(C(=O)CN1C(=O)CC[C@H]1CO)c1ccc2cc(-c3n[nH]c4c3CCC(C)(C)C4)[nH]c2c1` [Example 160]: the IC50 is 1 nM.
For `C[C@@H]1COCC(=O)N1CC(=O)N(C)c1ccc2cc(-c3n[nH]c4c3CCC(C)(C)C4)[nH]c2c1` [Example 171], the IC50 is 1 nM.
Regarding `CCC(=O)N(C)[C@@H](C)C(=O)N(C)c1ccc2cc(-c3n[nH]c4c3CCC(C)(C)C4)[nH]c2c1` [Example 203], the concentration for half-maximal inhibition (IC50) was 12 nM.
Next, `CC(NC(=O)c1ccc2cc(-c3n[nH]c4c3CCC(C)(C)C4)[nH]c2c1)C(C)(C)C` (centres unmarked) [Example 13]: 99 nM; `CN(C(=O)CO)c1ccc2cc(-c3n[nH]c4c3CCC(C)(C)C4)[nH]c2c1` [Example 35]: 5 nM.
In the case of `CN(C(=O)CN1CCCCC1)c1ccc2cc(-c3n[nH]c4c3CCC(C)(C)C4)[nH]c2c1` [Example 79], the IC50 was 13 nM.
For the molecule `COC1CCC(CC(=O)N(C)c2ccc3cc(-c4n[nH]c5c4CCC(C)(C)C5)[nH]c3c2)CC1` (centres unmarked) [Example 176], the half-inhibitory concentration (IC50) is 7 nM.
In the case of `CC(C)C(CO)N(C)C(=O)c1ccc2cc(-c3n[nH]c4c3CCC(C)(C)C4)[nH]c2c1` (centres unmarked) [Example 25], the IC50 is 26 nM.
On to `CN(C)CCCN(C(=O)C1CCCO1)c1ccc2cc(-c3n[nH]c4c3CCC(C)(C)C4)[nH]c2c1` (centres unmarked) [Example 224], for which the IC50 is 1 nM.
Next, `CCC(=O)N(C)c1ccc2cc(-c3n[nH]c4c3CCC(C)C4)[nH]c2c1` (centres unmarked) [Example 355]: 9 nM; `CC(C(=O)N(C)c1ccc2cc(-c3n[nH]c4c3CCC(C)(C)C4)[nH]c2c1)N1CCC[C@@H](O)C1` (some centres unmarked) [Example 112]: 7 nM.
For `CN(C(=O)CC1CCCO1)c1ccc2cc(-c3n[nH]c4c3CCC(C)(C)C4)[nH]c2c1` (centres unmarked) [Example 71] the value was less than 3 nM.
Next, `CCN(C)C(=O)c1ccc2[nH]c(-c3n[nH]c4c3CCC(C)(C)C4)cc2c1` [Example 331]: 60 nM.
Regarding `CO[C@H]1CC[C@@H](C(=O)N(CCO)c2ccc3cc(-c4n[nH]c5c4CCC(C)(C)C5)[nH]c3c2)CC1` [Example 240], the IC50 is 3 nM.
For `COCCN(C(=O)CC1CCOCC1)c1ccc2cc(-c3n[nH]c4c3CCC(C)(C)C4)[nH]c2c1` [Example 269], the concentration for half-maximal inhibition (IC50) was 6 nM.
For the molecule `CC1COCCN1C(C)C(=O)N(C)c1ccc2cc(-c3n[nH]c4c3CCC(C)(C)C4)[nH]c2c1` (centres unmarked) [Example 146], the IC50 was 11 nM.
For the molecule `CC1(C)CCc2c(-c3cc4ccc(N(CCO)C(=O)CC5CCOCC5)cc4[nH]3)n[nH]c2C1` [Example 249], the IC50 is 7 nM.
`CN(C)CCN(C(=O)C1CCOC1)c1ccc2cc(-c3n[nH]c4c3CCC(C)(C)C4)[nH]c2c1` (centres unmarked) [Example 217]: the half-maximal inhibitory concentration (IC50) is less than 3 nM.
As to `COCC(=O)N(C)c1ccc2cc(-c3n[nH]c4c3CCC(C)(C)C4)[nH]c2c1` [Example 36], the IC50 was less than 3 nM.
For the molecule `CC(N(C)C(=O)c1ccc2[nH]c(-c3n[nH]c4c3CCC(C)(C)C4)cc2c1)C(C)(C)C` (centres unmarked) [Example 300], the IC50 was 221 nM.
Turning to `COCCN(C(=O)CN1CCCCCC1=O)c1ccc2cc(-c3n[nH]c4c3CCC(C)(C)C4)[nH]c2c1` [Example 281], the IC50 is 1 nM.
Regarding `CCC(=O)Nc1ccc2cc(-c3n[nH]c4c3CCC(C)(C)C4)[nH]c2c1` [Example 28], the IC50 is 201 nM.
For `CC1(C)CCc2c(-c3cc4ccc(N5CCC(C6CCCCC6)C5=O)cc4[nH]3)n[nH]c2C1` (centres unmarked) [Example 250] the value was 139 nM.
`CN(C(=O)[C@@H]1CCC(=O)N1C)c1ccc2cc(-c3n[nH]c4c3CCC(C)(C)C4)[nH]c2c1` [Example 151]: the IC50 was 3 nM.
Turning to `CN(C(=O)CN1CCC(O)CC1)c1ccc2cc(-c3n[nH]c4c3CCC(C)(C)C4)[nH]c2c1` [Example 107], the 50% inhibitory concentration (IC50) was 10 nM.
With `CC1COCC(=O)N1C(C)C(=O)N(C)c1ccc2cc(-c3n[nH]c4c3CCC(C)(C)C4)[nH]c2c1` (centres unmarked) [Example 152], the IC50 is 14 nM.
With `CCC(=O)N(C)c1ccc2cc(-c3n[nH]c4c3CCC(C)(C)C4)[nH]c2c1` [Example 70], the IC50 is 3 nM.
On to `CC1(C)CCc2c(-c3cc4cc(C(=O)Nc5nnc(O)s5)ccc4[nH]3)n[nH]c2C1` [Example 324], for which the concentration for half-maximal inhibition (IC50) was 140 nM.
As to `CC1(C)CCc2c(-c3cc4ccc(N(CCO)C(=O)CC5CCCOC5)cc4[nH]3)n[nH]c2C1` (centres unmarked) [Example 232], the IC50 is 3 nM.
For `CC1(C)CCc2c(-c3cc4ccc(N(CCO)C(=O)C(O)C5CCCOC5)cc4[nH]3)n[nH]c2C1` (centres unmarked) [Example 245] the value was 10 nM; for `COC(=O)CN(C)C(=O)c1ccc2[nH]c(-c3n[nH]c4c3CCC(C)(C)C4)cc2c1` [Example 311], 32 nM; for `CN(C(=O)C1CCCCC1)c1ccc2cc(-c3n[nH]c4c3CCC(C)(C)C4)[nH]c2c1` [Example 124], 12 nM.
On to `COC(=O)N(C)CC(=O)N(C)c1ccc2cc(-c3n[nH]c4c3CCC(C)(C)C4)[nH]c2c1` [Example 198], for which the IC50 was 1 nM.
